These results are taken from US6881741B2 (ViroChem Pharma Inc., priority 2001, dated 2005).

What is called IC50 is the midpoint of a concentration-inhibition curve.

This assay addresses recombinant HCV NS5B (HCV RNA-dependent RNA polymerase) (Hepatitis C virus genotype 1b, UniProt P26663). Put plainly: biochemical.
The mark [1] stands for this setting: related polymerase activity (Example 27 list), read-out: IC50.
[2] abbreviates: HCV polymerase activity, list of compounds of Example 27, read-out: IC50 (polymerase activity).

Counter-ions that a name gives are not always drawn. Like-named read-outs stand apart in the source and are kept apart here. Bounds are passed on as bounds.

Chain of recombinant HCV NS5B (HCV RNA-dependent RNA polymerase) (P26663 2420-3010 limits assumed): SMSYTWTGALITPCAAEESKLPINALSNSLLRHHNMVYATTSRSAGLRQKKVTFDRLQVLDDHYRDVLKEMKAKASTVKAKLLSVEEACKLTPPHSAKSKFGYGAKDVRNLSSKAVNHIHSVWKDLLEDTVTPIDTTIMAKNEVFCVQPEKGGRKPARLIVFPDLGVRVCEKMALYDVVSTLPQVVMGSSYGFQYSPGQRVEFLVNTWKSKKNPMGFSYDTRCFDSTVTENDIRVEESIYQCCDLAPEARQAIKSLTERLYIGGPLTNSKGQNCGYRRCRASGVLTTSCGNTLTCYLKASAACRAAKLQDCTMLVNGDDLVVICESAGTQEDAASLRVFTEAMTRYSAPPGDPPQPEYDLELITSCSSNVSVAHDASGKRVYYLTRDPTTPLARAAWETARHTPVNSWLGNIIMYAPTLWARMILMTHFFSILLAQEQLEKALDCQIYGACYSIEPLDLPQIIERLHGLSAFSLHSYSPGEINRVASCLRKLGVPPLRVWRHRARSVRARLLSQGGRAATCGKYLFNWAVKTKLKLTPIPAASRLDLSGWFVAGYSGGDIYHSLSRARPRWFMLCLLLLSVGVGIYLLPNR

With `CC(=O)c1cc(-c2cc(NS(=O)(=O)c3ccc(C)cc3C)c(C(=O)O)s2)cs1` [Compound 367, 5′-ACETYL-4-(2,4-DIMETHYL- BENZENESULFONYLAMINO)- [2,3′]BITHIOPHENYL-5-CARBOXYLIC ACID], the IC50 under setting [1] was below 5 µM.
On to `Cc1ccc(C(=O)N(C)c2cc(-c3cccc(Cl)c3)sc2C(=O)O)cc1` [Compound 269, 5-(3-CHLORO-PHENYL)-3-[METHYL-(4-METHYL-BENZOYL)-AMINO]-THIOPHENE-2-CARBOXYLIC ACID], for which, under setting [1], the IC50 is below 5 µM.
With `CC(=O)N(Cc1ccc(Cl)cc1)c1cc(-c2ccccc2)sc1C(=O)O` [Compound 241, 3-[ACETYL-(4-CHLORO-BENZYL)-AMINO]-5-PHENYL-THIOPHENE-2-CARBOXYLIC ACID], the half-maximal inhibitory concentration (IC50) under setting [1] lay in the range of 5 to 20 µM.
As to `CC(C)N(C(=O)C1CC=CCC1)c1cc(-c2ccccc2)sc1C(=O)O` (stereo not shown) [Compound 530, 3-[(CYCLOHEX-3-ENECARBONYL)- ISOPROPYL-AMINO]-5-PHENYL- THIOPHENE-2-CARBOXYLIC ACID], under setting [2], the half-maximal inhibitory concentration (IC50) is 5 to 20 µM.
`Cc1ccccc1S(=O)(=O)Nc1cc(C(=O)c2ccccc2)sc1C(=O)O` [Compound 82, 5-BENZOYL-3-(TOLUENE-2-SULFONYLAMINO)-THIOPHENE-2-CARBOXYLIC ACID]: the 50% inhibitory concentration (IC50) under setting [1] was 5 to 20 µM.
For `CC(C)N(C(=S)c1ccc(Cl)cc1Cl)c1cc(-c2ccccc2)sc1C(=O)O` [Compound 297, 3-[(2,4-DICHLORO-THIOBENZOYL)-ISOPROPYL-AMINO]-5-PHENYL-THIOPHENE-2-CARBOXYLIC ACID], under setting [1], the IC50 is below 5 µM.
Turning to `O=C(O)c1sc(-c2ccccc2)cc1N(Cc1ccc(C(F)(F)F)cc1)C(=O)C1CC1` [Compound 413, 3-[CYCLOPROPANECARBONYL-(4- TRIFLUOROMETHYL-BENZYL)-AMINO]-5- PHENYL-THIOPHENE-2-CARBOXYLIC ACID], the concentration for half-maximal inhibition (IC50) under setting [2] lay within 5 to 20 µM.
`CC(c1ccccc1)N(C(=O)c1ccc(Cl)cc1Cl)c1cc(-c2ccccc2)sc1C(=O)O` (stereo not shown) [Compound 264, 3-[(2,4-DICHLORO-BENZOYL)-(1-PHENYL-ETHYL)-AMINO]-5-PHENYL-THIOPHENE-2-CARBOXYLIC ACID]: the IC50 under setting [1] was below 5 µM.
`C=CCN(C(=O)C1CCC1)c1cc(-c2ccccc2)sc1C(=O)O` [Compound 398, 3-(ALLYL-CYCLOBUTANECARBONYL- AMINO)-5-PHENYL-THIOPHENE-2- CARBOXYLIC ACID]: the 50% inhibitory concentration (IC50) under setting [1] is above 20 µM.
For the compound `Cc1ccc(S(=O)(=O)Nc2c(C(=O)O)sc(-c3ccccc3)c2C)c(C)c1` [Compound 308, 3-(2,4-DIMETHYL- BENZENESULFONYLAMINO)-4-METHYL- 5-PHENYL-THIOPHENE-2-CARBOXYLIC ACID], the IC50 under setting [1] fell in the range of 5 to 20 µM.
With `CC(CNC(=O)OC(C)(C)C)N(C(=O)c1ccc(Cl)cc1Cl)c1cc(-c2ccccc2)sc1C(=O)O` (stereo not shown) [Compound 545, 3-[(2-TERT-BUTOXYCARBONYLAMINO-1- METHYL-ETHYL)-(2,4-DICHLORO- BENZOYL)-AMINO]-5-PHENYL- THIOPHENE-2-CARBOXYLIC ACID], under setting [2], the IC50 was below 5 µM.
On the same count and under the same terms, the result for `N=C(N)N1CCC(N(C(=O)c2ccc(Cl)cc2Cl)c2cc(-c3ccccc3)sc2C(=O)O)CC1` [Compound 506, 3-[(1-CARBAMIMIDOYL-PIPERIDIN-4-YL)- (2,4-DICHLORO-BENZOYL)-AMINO]-5- PHENYL-THIOPHENE-2-CARBOXYLIC ACID] reads below 5 µM.
`Cc1ccc(-c2cc(NS(=O)(=O)c3cc(C)ccc3C)c(C(=O)O)s2)cc1` [Compound 118, 3-(2,5-DIMETHYL-BENZENESULFONYLAMINO)-5-P-TOLYL-THIOPHENE-2-CARBOXYLIC ACID]: the half-inhibitory concentration (IC50) under setting [1] is below 5 µM.
Take `COCC(=O)N(Cc1cccc(Cl)c1)c1cc(-c2ccccc2)sc1C(=O)O` [Compound 478, 3-[(3-CHLORO-BENZYL)-(2-METHOXY- ACETYL)-AMINO]-5-PHENYL-THIOPHENE- 2-CARBOXYLIC ACID]: the IC50 under setting [2] was above 20 µM.
In the case of `Cc1cccc(-c2cc(N(C(=O)c3ccc(C)cc3O)C(C)C)c(C(=O)O)s2)c1` [Compound 502, 3-[(2-HYDROXY-4-METHYL-BENZOYL)- ISOPROPYL-AMINO]-5-#M!-TOLYL- THIOPHENE-2-CARBOXYLIC ACID], under setting [2], the IC50 was below 5 µM.
Take `Cc1ccc(S(=O)(=O)Nc2cc(-c3ccc(/C=C/C(=O)O)cc3)sc2C(=O)O)c(C)c1` [Compound 322, 5-[4-(2-CARBOXY-VINYL)-PHENYL]-3-(2,4- DIMETHYL-BENZENESULFONYLAMINO)- THIOPHENE-2-CARBOXYLIC ACID]: the IC50 under setting [1] was below 5 µM.
For the compound `Cc1ccccc1S(=O)(=O)Nc1cc(-c2ccc(Cl)c(Cl)c2)sc1C(=O)O` [Compound 85, 5-(3,4-DICHLORO-PHENYL)-3-(TOLUENE-2-SULFONYLAMINO)-THIOPHENE-2-CARBOXYLIC ACID], the IC50 under setting [1] was 5 to 20 µM.
Turning to `O=C(O)c1sc(-c2ccccc2)cc1N(C(=O)c1ccc(Cl)cc1Cl)C1CC1` [Compound 333, 3-[CYCLOPROPYL-(2,4-DICHLORO- BENZOYL)-AMINO]-5-PHENYL- THIOPHENE-2-CARBOXYLIC ACID], under setting [1], the concentration for half-maximal inhibition (IC50) was below 5 µM.
`Cc1ccc(C(=O)N(C)c2cc(-c3ccc([N+](=O)[O-])cc3)sc2C(=O)O)cc1` [Compound 194, 3-[METHYL-(4-METHYL-BENZOYL)-AMINO]-5-(4-NITRO-PHENYL)-THIOPHENE-2-CARBOXYLIC ACID]: the IC50 under setting [1] lay in the range of 5 to 20 µM.
For `Cc1ccccc1S(=O)(=O)Nc1cc(-c2ccc(Cl)cn2)sc1C(=O)O` [Compound 191, 5-(5-CHLORO-PYRIDIN-2-YL)-3-(TOLUENE-2-SULFONYLAMINO)-THIOPHENE-2-CARBOXYLIC ACID], the half-inhibitory concentration (IC50) under setting [1] was below 5 µM.
As for `Cc1ccccc1S(=O)(=O)Nc1cc(-c2ccc(C#N)cc2)sc1C(=O)O` [Compound 83, 5-(4-CYANO-PHENYL)-3-(TOLUENE-2-SULFONYLAMINO)-THIOPHENE-2-CARBOXYLIC ACID], under setting [1], the IC50 was below 5 µM.
With `Cc1ccc(C(=O)N(Cc2ccc(Cl)cc2)c2cc(-c3ccccc3)sc2C(=O)O)cc1` [Compound 341, 3-[(4-CHLORO-BENZYL)-(4-METHYL- BENZOYL)-AMINO]-5-PHENYL- THIOPHENE-2-CARBOXYLIC ACID], the IC50 under setting [1] was below 5 µM.
On the same count and under the same terms, the result for `Cc1ccccc1S(=O)(=O)Nc1cc(-c2ccc(NS(C)(=O)=O)cc2)sc1C(=O)O` [Compound 369, 5-(4-METHANESULFONYLAMINO- PHENYL)-3- (TOLUENE-2-SULFONYLAMINO)- THIOPHENE- 2-CARBOXYLIC ACID] reads 5 to 20 µM.
`CC(C[NH3+])N(C(=O)c1ccc(Cl)cc1Cl)c1cc(-c2ccccc2)sc1C(=O)O` (stereo not shown) [Compound 546, 2-[(2-CARBOXY-5-PHENYL-THIOPHEN-3- YL)-(2,4-DICHLORO-BENZOYL)-AMINO]- PROPYL-AMINE TRIFLUOROACETIC ACID SALT]: the half-inhibitory concentration (IC50) under setting [2] was below 5 µM.
Regarding `Cc1ccc(S(=O)(=O)Nc2cc(-c3ccccc3)sc2C(=O)NCC(=O)O)cc1` [Compound 551, {[5-PHENYL-3-(TOLUENE-4- SULFONYLAMINO)-THIOPHENE-2- CARBONYL]-AMINO}-ACETIC ACID], the IC50 under setting [2] lay in the range of 5 to 20 µM.
As for `CC(C)(C)OC(=O)N1CCCC(N(C(=O)c2ccc(Cl)cc2Cl)c2cc(-c3ccccc3)sc2C(=O)O)CC1` (stereo not shown) [Compound 507, 4-[(2-CARBOXY-5-PHENYL-THIOPHEN-3- YL)-(2,4-DICHLORO-BENZOYL)-AMINO]- AZEPANE-1-CARBOXYLIC ACID TERT!- BUTYL ESTER], the half-inhibitory concentration (IC50) under setting [2] is below 5 µM.
`CN(C(=O)c1ccc(Cl)cc1)c1cc(-c2ccccc2)sc1C(=O)O` [Compound 73, 3-[(4-CHLORO-BENZOYL)-METHYL-AMINO]-5-PHENYL-THIOPHENE-2-CARBOXYLIC ACID]: the IC50 under setting [1] is below 5 µM.
`Cc1ccc(C(=O)N(c2cc(-c3cccc(C(F)(F)F)c3)sc2C(=O)O)C(C)C)c(O)c1` [Compound 428, 3-[(2-HYDROXY-4-METHYL-BENZOYL)- ISOPROPYL-AMINO]-5-(3- TRIFLUOROMETHYL-PHENYL)- THIOPHENE-2-CARBOXYLIC ACID]: the concentration for half-maximal inhibition (IC50) under setting [2] lay in the range of 5 to 20 µM.
Consider `CC1CCC(C(=O)N(c2cc(-c3ccc(Cl)cc3)sc2C(=O)O)C(C)C)CC1` (stereo not shown) [Compound 570, 5-(4-CHLORO-PHENYL)-3-[ISOPROPYL-(4- METHYL-CYCLOHEXANECARBONYL)- AMINO]-THIOPHENE-2-CARBOXYLIC ACID], for which the IC50 under setting [2] was below 5 µM.
Regarding `Cc1ccccc1S(=O)(=O)Nc1cc(/C=C/c2ccc(Cl)cc2)sc1C(=O)O` [Compound 134, 5-[2-(4-CHLORO-PHENYL)-VINYL]-3-(TOLUENE-2-SULFONYLAMINO)-THIOPHENE-2-CARBOXYLIC ACID], the IC50 under setting [1] was in the range of 5 to 20 µM.
As for `COc1cccc(CN(C(=O)C2CCC2)c2cc(-c3ccccc3)sc2C(=O)O)c1` [Compound 473, 3-[CYCLOBUTANECARBONYL-(3- METHOXY-BENZYL)-AMINO]-5-PHENYL- THIOPHENE-2-CARBOXYLIC ACID], the half-inhibitory concentration (IC50) under setting [2] was 5 to 20 µM.
On to `CCC(=O)N(Cc1ccc([N+](=O)[O-])cc1)c1cc(-c2ccccc2)sc1C(=O)O` [Compound 418, 3-[(4-NITRO-BENZYL)-PROPIONYL- AMINO]-5-PHENYL-THIOPHENE-2- CARBOXYLIC ACID], for which the IC50 under setting [2] lay within 5 to 20 µM.
Regarding `Cc1ccccc1S(=O)(=O)Nc1cc(-c2ccc([N+](=O)[O-])cc2)sc1C(=O)O` [Compound 59, 5-(4-NITRO-PHENYL)-3-(TOLUENE-2-SULFONYLAMINO)-THIOPHENE-2-CARBOXYLIC ACID], the IC50 under setting [1] was below 5 µM.
Take `Cc1ccc(C(=O)N(C)c2cc(-c3ccccc3Cl)sc2C(=O)O)cc1` [Compound 207, 5-(2-CHLORO-PHENYL)-3-[METHYL-(4-METHYL-BENZOYL)-AMINO]-THIOPHENE-2-CARBOXYLIC ACID]: the IC50 under setting [1] was in the range of 5 to 20 µM.
For `Cc1ccc(C(=O)N(C)c2cc(-c3ccc(C(F)(F)F)cc3)sc2C(=O)O)cc1` [Compound 275, 3-[METHYL-(4-METHYL-BENZOYL)-AMINO]-5-(4-TRIFLUOROMETHYL-PHENYL)-THIOPHENE-2-CARBOXYLIC ACID], the IC50 under setting [1] was below 5 µM.
For `CN(C(=O)C1CCCCC1)c1cc(-c2ccccc2)sc1C(=O)O` [Compound 498, 3-(CYCLOHEXANECARBONYL-METHYL- AMINO)-5-PHENYL-THIOPHENE-2- CARBOXYLIC ACID], the half-maximal inhibitory concentration (IC50) under setting [2] is below 5 µM.
In the case of `CC(C)N(C(=O)c1ccc(Cl)cc1Cl)c1cc(-c2cc3ccccc3o2)sc1C(=O)O` [Compound 376, 5-BENZOFURAN-2-YL-3-[(2,4-DICHLORO- BENZOYL)-ISOPROPYL-AMINO]- THIOPHENE-2-CARBOXYLIC ACID], the IC50 under setting [1] is below 5 µM.
